{"source": "patent US20120323016A1", "about": "“METHOD OF PREPARING DERIVATIVES/OLIGOMERS OF EPICATECHIN AND APPLICATIONS THEREOF” (NATIONAL UNIVERSITY OF SINGAPORE, priority 2009, published 2012)", "assay": "Oxygen radical absorbance capacity (ORAC) assay", "experimental": "Peroxyl radical scavenging capacity of the EC2S2 was determined using oxygen radical absorbance capacity (ORAC) assay (Huang, D.; Ou, B.; Hampsch-Woodill, M.; Flanagan, J. A.; Prior, R. L. High-throughput assay of oxygen radical absorbance capacity (ORAC) using a multichannel liquid handling system coupled with a microplate fluorescence reader in 96-well format. Journal of Agricultural and Food Chemistry (2002), 50(16), 4437-4444.). […] The net area under the curve has excellent linear relationship with the concentration of EC2S2. The ORAC value calculated from the individual concentration is 10.79±0.58 μmol TE/μmol sample. This is the highest ORAC value reported for pure antioxidant compounds."}
{"smiles": "Oc1cc(O)c2c(c1)O[C@H](c1ccc(O)c(O)c1)[C@H](O)[C@H]2SCCS[C@H]1c2c(O)cc(O)cc2O[C@H](c2ccc(O)c(O)c2)[C@@H]1O", "note": "[EC2S2, (2R,2′R,3S,3′S,4S,4′S)-4,4′-(ethane-1,2-diylbis(sulfanediyl))bis(2-(3,4-dihydroxyphenyl)chroman-3,5,7-triol)]", "values": [{"measurement": "antioxidant activity relative to EC", "setting": "EC2S2 synthesized from Pine Bark OPCs, compared with EC", "result": "two times higher than EC"}, {"measurement": "ORAC value (peroxyl radical scavenging capacity)", "setting": "calculated from the individual concentration, Trolox standard", "result": "10.79±0.58", "unit": "μmol TE/μmol sample"}]}
